Legend:
[1] = tested on: GECKO-transduced primary T-cells; experiment: Puromycine resistance test of mock- and GECKO-transduced primary T-cells (viability by flow cytometry); format: cell-based, human; parameters: dose or concentration left out as unconfirmed; settings: GECKO-transduced versus mock T-cells, 3 days, simultaneous activation/transduction, FIG. 5
Experimental: Peripheral blood mononuclear cells (PBMC) were obtained from healthy volunteer donors and T-lymphocytes were purified using the EasySep human T-cell enrichment kit (Stemcell Technologies). By contrast with the GECKO protocol described by Shalem et al., primary T-cells were activated and immediately transduced with the viral particles. The T-cells were first mixed with dynabeads (25 uL/10^6 T-cells) in Xvivo-15 media and then plated on 12 well plates coated by 30 ug/mL retronectin per well (iml of retronectin per well incubated 1 hour at 37° C. followed by a washing steps using 1 ml of PBS 2% FBS) in a total volume of 400 μL. The mixture was supplemented by either 200 μL of GECKO lentiviral particles or 200 μL of Xvivo-15 media and incubated 2H at 37° C. and 5% CO2. The mixture was then supplemented by 600 μL of Xvivo-15 media, 10% AB serum and 40 ng/mL IL2 and incubated overnight at 37° C. with 5% CO2. Cells were then washed with 1.5 ml of Xvivo-15 media and resuspended in Xvivo-15 media, 5% AB serum, 20 ng/mL IL-2 in 6 wells plate at 10^6 cells/mL.
3 days post transduction, cells were recovered and used to perform a puromycine resistance test. […] FIG. 2 illustrates the puromycine sensitivity pattern of mock- and GECKO-transduced primary T-cells determined by flow cytometry. […] Cells are then recovered, labeled using EFluor780 dye and analyzed by flow cytometry to determine their viability. […]

primary T cell = experiment: Bortezomib dose response, viability of primary T cells by flow cytometry (live dead cell marker); format: cell-based; settings: Homo sapiens, cultured for 48h with bortezomib, FIG. 1A, read-out: EC50 of Bortezomib (cell depletion / viability)
Text: (§1) Peripheral blood mononuclear cells (PBMC) were obtained from healthy volunteer donors as described by Schwartz J. et al. (Guidelines on the use of therapeutic apheresis in clinical practice-evidence-based approach from the Writing Committee of the American Society for Apheresis: the sixth special issue (2013) J Clin Apher. 28(3):145-284).
(§2) To investigate whether bortezomib treatment modify the survival of primary cells, frozen PBMCs were thawed and activated using Dynabeads human T activator CD3/CD28. 3 days after their activation, 1 million cells were transduced using a CD123 CAR (specific for CD123) at a MOI of 5. Cells were then immediately diluted in X-Vivo-15 media supplemented by 20 ng/ml IL-2 and 5% human serum AB and diluted at 1×10^6 cells/ml and kept in culture at 37° C. in the presence of 5% CO2. […] At the end of the culture cell viability was assessed by flow cytometry using a live dead cell marker.

[2] = tested on: CART cells that express mutated PSMB5; experiment: Bortezomib dose response, viability of CART cells coexpressing mutated PSMB5; format: cell-based, human; settings: CART cells that express mutated PSMB5 as compared to WT CART cells and NT cells, 48h, FIG. 4
Experimental: (§3) To investigate whether overexpressing POMP, PSMB5 or mutated PSMB5 on CART cells confers resistance to bortezomib treatment, T-cells frozen PBMCs were thawed and activated using Dynabeads human T activator CD3/CD28. 3 days after their activation 1 million T-cells were transduced or not using the CD123 CAR and one of the ORF at a MOI of 5 for both lentiviral particles. Cells were then immediately diluted in X-Vivo-15 media supplemented by 20 ng/ml IL-2 and 5% human serum AB and diluted at 1×10^6 cells/ml and kept in culture at 37° C. in the presence of 5% CO2. 7 days later, T cells, CART cells and MOLM13 cells were cultured for 48h in the presence of increasing doses of bortezomib ranging from 0 to 100 μM. At the end of the culture cell viability was assessed by flow cytometry using a live dead cell marker.

[3] = tested on: CART cells that express PSMB5; experiment: Bortezomib dose response, viability of CART cells coexpressing PSMB5; format: cell-based, human; settings: CART cells that express PSMB5 as compared to WT CART cells and NT cells, 48h, FIG. 4
Experimental: as §3

[4] = tested on: primary CAR T-cell (CAR anti-CD123); experiment: Bortezomib dose response, viability of primary CAR T-cells (CAR anti-CD123) by flow cytometry; format: cell-based, human
Text: as §1
To investigate whether bortezomib treatment modify the survival of primary cells, frozen PBMCs were thawed and activated using Dynabeads human T activator CD3/CD28. 3 days after their activation, 1 million cells were transduced using a CD123 CAR (specific for CD123) at a MOI of 5. Cells were then immediately diluted in X-Vivo-15 media supplemented by 20 ng/ml IL-2 and 5% human serum AB and diluted at 1×10^6 cells/ml and kept in culture at 37° C. in the presence of 5% CO2. 7 days later, T cells, CART cells and MOLM13 cells were cultured for 48h in the presence of bortezomib increasing doses of bortezomib ranging from 0 nM to […]. At the end of the culture cell viability was assessed by flow cytometry using a live dead cell marker.
To investigate whether overexpressing POMP, PSMB5 or mutated PSMB5 on CART cells confers resistance to bortezomib treatment, T-cells frozen PBMCs were thawed and activated using Dynabeads human T activator CD3/CD28. […] At the end of the culture cell viability was assessed by flow cytometry using a live dead cell marker.

MOLM13 cell line = experiment: Bortezomib dose response, viability of MOLM13 cells by flow cytometry; format: cell-based; settings: Homo sapiens, MOLM-13, cultured for 48h with bortezomib, FIG. 1C, read-out: EC50 of Bortezomib (cell depletion / viability)
Experimental: as §2

## COc1ccc(C[C@H](N)C(=O)N[C@H]2[C@@H](O)[C@H](n3cnc4c(N(C)C)ncnc43)O[C@@H]2CO)cc1 [puromycine]
[1]
  puromycine sensitivity (viability frequency): more resistance

## CC(C)C[C@H](NC(=O)[C@H](Cc1ccccc1)NC(=O)c1cnccn1)B(O)O [bortezomib]
Primary T cell
  EC50: ~10 nM
[2]
  EC50 of bortezomib, change: increased
[3]
  EC50 of bortezomib, change: increased
[4]; CART cells as compared to non-transduced cells, 48h, FIG. 4
  EC50 of bortezomib, change: increased
[4]; Homo sapiens, T-cell, primary CART cells (CD123 CAR), cultured for 48h with bortezomib, FIG. 1B, read-out: EC50 of Bortezomib (cell depletion / viability)
  EC50: ~10 nM
MOLM13 cell line
  EC50: ~10 nM
